Test results reported in patent US11739100B2, “2,3-dihydro-1h-imidazo{1,2-a}pyrimidin-5-one and this 1,2,3,4-tetrahydropyrimido{1,2-a}pyrimidin-6-one derivatives comprising a substituted morpholine, preparation thereof and pharmaceutical use thereof” (SANOFI, priority 2012, dated 2023).

Biological target: T1, recombinant Vps34 (Homo sapiens, UniProt Q8NEB9)
T1 construct: purchased Invitrogen PV5126
Test: Phosphorylation of phosphatidylinositol (PI) by Vps34 in vitro, ADP detected by TR-FRET (HTRF Transcreener ADP)
Type: biochemical
Details: 10 μM ATP, 55 μg/ml PI, approximately 3 nM Vps34, 1 hour at ambient temperature; absolute IC50, mean of two independent experiments; read-out: IC50 activity range

T1 sequence (Q8NEB9 whole entry): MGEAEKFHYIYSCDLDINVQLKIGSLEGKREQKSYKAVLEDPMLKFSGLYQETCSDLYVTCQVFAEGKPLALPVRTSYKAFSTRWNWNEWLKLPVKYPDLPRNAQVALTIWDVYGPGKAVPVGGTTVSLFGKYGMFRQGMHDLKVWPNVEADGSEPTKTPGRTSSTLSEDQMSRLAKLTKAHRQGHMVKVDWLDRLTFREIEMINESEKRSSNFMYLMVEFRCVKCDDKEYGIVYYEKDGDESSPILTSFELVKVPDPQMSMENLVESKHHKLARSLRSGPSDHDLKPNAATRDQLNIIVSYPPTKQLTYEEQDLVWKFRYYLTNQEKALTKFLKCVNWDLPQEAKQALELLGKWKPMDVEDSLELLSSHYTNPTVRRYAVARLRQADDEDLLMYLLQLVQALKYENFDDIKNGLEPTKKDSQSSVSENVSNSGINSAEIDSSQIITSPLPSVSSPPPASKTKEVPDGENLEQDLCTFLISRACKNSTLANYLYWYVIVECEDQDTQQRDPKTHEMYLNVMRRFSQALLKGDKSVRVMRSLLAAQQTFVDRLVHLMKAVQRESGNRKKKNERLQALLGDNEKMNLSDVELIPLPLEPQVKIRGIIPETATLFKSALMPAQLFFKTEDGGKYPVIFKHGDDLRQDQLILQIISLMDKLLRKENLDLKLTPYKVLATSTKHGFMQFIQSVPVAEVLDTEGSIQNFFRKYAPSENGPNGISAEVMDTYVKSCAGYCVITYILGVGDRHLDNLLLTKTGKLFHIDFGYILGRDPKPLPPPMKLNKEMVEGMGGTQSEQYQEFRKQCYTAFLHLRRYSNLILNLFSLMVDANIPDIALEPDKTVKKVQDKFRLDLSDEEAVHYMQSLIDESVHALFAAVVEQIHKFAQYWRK

IC50 [nM] | SMILES
< 10 | C[C@@H]1COCCN1c1nc2n(c(=O)c1F)CC[C@@H](C(F)(F)F)N2Cc1nc(C(F)(F)F)no1 [Example 251, (S)-3-Fluoro-2-((R)-3-methylmorpholin-4-yl)-8-trifluoromethyl-9-(3-trifluoromethyl-[1,2,4]oxadiazol-5-yl-methyl)-6,7,8,9-tetrahydro-pyrimido[1,2-a]-pyrimidin-4-one]
10 to 100 | C[C@@H]1COCCN1c1nc2n(c(=O)c1F)CC[C@@H](C(F)(F)F)N2CC(=O)N1CCOCC1 [Example 235, (S)-3-Fluoro-2-((R)-3-methylmorpholin-4-yl)-9-(2-morpholin-4-yl-2-oxoethyl)-8-trifluoromethyl-6,7,8,9-tetrahydro-pyrimido[1,2-a]-pyrimidin-4-one]
< 10 | C[C@@H]1COCCN1c1nc2n(c(=O)c1F)CC[C@@H](C(F)(F)F)N2CC(=O)N1CCCCC1 [Example 237, (S)-3-Fluoro-2-((R)-3-methylmorpholin-4-yl)-9-(2-oxo-2-piperidin-1-ylethyl)-8-trifluoromethyl-6,7,8,9-tetrahydro-pyrimido[1,2-a]-pyrimidin-4-one]
10 to 100 | C[C@@H]1COC[C@@H](C)N1c1cc(=O)n2c(n1)N(Cc1ccc(Cl)nc1)[C@H](C(F)(F)F)CC2 [Example 156, (S)-9-(6-Chloro-pyridin-3-ylmethyl)-2-((3R,5R)-3,5-dimethyl-morpholin-4-yl)-8-trifluoromethyl-6,7,8,9-tetrahydro-pyrimido[1,2-a]-pyrimidin-4-one]
< 10 | C[C@@H]1COCCN1c1cc(=O)n2c(n1)N(CC(=O)c1cccnc1)CC[C@@H]2C(F)(F)F [Example 141, (R)-2-((R)-3-Methyl-morpholin-4-yl)-9-(2-oxo-2-pyridin-3-yl-ethyl)-6-trifluoromethyl-6,7,8,9-tetrahydro-pyrimido[1,2-a]-pyrimidin-4-one]
< 10 | Cc1noc(CN2CC[C@H](C(F)(F)F)n3c2nc(N2CCOC[C@H]2C)c(F)c3=O)n1 [Example 149, (R)-3-Fluoro-2-((R)-3-methylmorpholin-4-yl)-9-(3-methyl-[1,2,4]oxadiazol-5-yl-methyl)-6-trifluoromethyl-6,7,8,9-tetrahydro-pyrimido[1,2-a]-pyrimidin-4-one]
> 100 | CC(C)C(=O)CN1c2nc(N3CCOC[C@@H]3C)c(F)c(=O)n2CC[C@H]1C(F)(F)F [Example 278, (S)-3-Fluoro-2-((S)-3-methylmorpholin-4-yl)-9-(3-methyl-2-oxo-butyl)-8-trifluoromethyl-6,7,8,9-tetrahydro-pyrimido[1,2-a]-pyrimidin-4-one]
< 10 | C[C@@H]1COCCN1c1cc(=O)n2c(n1)N(CC(=O)c1cccnc1)[C@](C)(C(F)(F)F)C2 [Example 180, (S)-2-Methyl-7-((R)-3-methylmorpholin-4-yl)-1-(2-oxo-2-pyridin-3-ylethyl)-2-trifluoromethyl-2,3-dihydro-1H-imidazo[1,2-a]-pyrimidin-5-one]
< 10 | C[C@@H]1COCCN1c1cc(=O)n2c(n1)N(Cc1ccnc(F)c1)[C@H](C(F)(F)F)CC2 [Example 257, (S)-9-(2-Fluoropyridin-4-ylmethyl)-2-((R)-3-methylmorpholin-4-yl)-8-trifluoromethyl-6,7,8,9-tetrahydro-pyrimido[1,2-a]-pyrimidin-4-one]
< 10 | C[C@@H]1COCCN1c1cc(=O)n2c(n1)N(Cc1ccnc(Cl)c1)CC[C@@H]2C(F)(F)F [Example 112, (R)-9-(2-Chloro-pyridin-4-ylmethyl)-2-((R)-3-methyl-morpholin-4-yl)-6-trifluoromethyl-6,7,8,9-tetrahydro-pyrimido[1,2-a]-pyrimidin-4-one]
< 10 | CO[C@H](CN1c2nc(N3CCOC[C@H]3C)cc(=O)n2CC[C@H]1C(F)(F)F)c1ccccc1 [Example 100, (S)-9-((S)-2-Methoxy-2-phenylethyl)-2-((R)-3-methylmorpholin-4-yl)-8-trifluoromethyl-6,7,8,9-tetrahydro-pyrimido[1,2-a]-pyrimidin-4-one]
< 10 | Cc1noc(CN2c3nc(N4CCOC[C@H]4C)cc(=O)n3CC[C@H]2C(F)(F)F)n1 [Example 17, (S)-2-((R)-3-Methyl-morpholin-4-yl)-9-(3-methyl-[1,2,4]oxadiazol-5-yl-methyl)-8-trifluoromethyl-6,7,8,9-tetrahydro-pyrimido[1,2-a]-pyrimidin-4-one]
10 to 100 | CNC(=O)CN1c2nc(N3CCOC[C@H]3C)cc(=O)n2CC[C@H]1C(F)(F)F [Example 223, N-Methyl-2-[(S)-8-((R)-3-methylmorpholin-4-yl)-6-oxo-2-trifluoromethyl-3,4-dihydro-2H,6H-pyrimido[1,2-a]-pyrimidin-1-yl]-acetamide]
< 10 | C[C@@H]1COCCN1c1nc2n(c(=O)c1F)CC[C@@H](C(F)(F)F)N2Cc1cccnc1F [Example 58, (S)-3-Fluoro-9-(2-fluoropyridin-3-yl-methyl)-2-((R)-3-methylmorpholin-4-yl)-8-trifluoromethyl-6,7,8,9-tetrahydro-pyrimido[1,2-a]-pyrimidin-4-one]
< 10 | C[C@@H]1COCCN1c1cc(=O)n2c(n1)N(Cc1ccnnc1)[C@H](C(F)(F)F)CC2 [Example 259, (S)-2-((R)-3-methyl-morpholin-4-yl)-9-pyridazin-4-ylmethyl-8-trifluoromethyl-6,7,8,9-tetrahydro-pyrimido[1,2-a]-pyrimidin-4-one]
10 to 100 | O=C(CN1c2nc(N3CC4CCC(C3)O4)cc(=O)n2CC[C@H]1C(F)(F)F)c1ccccn1 [Example 171, (S)-2-(8-Oxa-3-aza-bicyclo[3.2.1]oct-3-yl)-9-(2-oxo-2-pyridin-2-ylethyl)-8-trifluoromethyl-6,7,8,9-tetrahydro-pyrimido[1,2-a]-pyrimidin-4-one]
< 10 | C[C@@H]1COCCN1c1cc(=O)n2c(n1)N(CC(=O)C1CC1)CC[C@@H]2C(F)(F)F [Example 118, (R)-9-(2-Cyclopropyl-2-oxoethyl)-2-((R)-3-methylmorpholin-4-yl)-6-trifluoromethyl-6,7,8,9-tetrahydro-pyrimido[1,2-a]-pyrimidin-4-one]
< 10 | C[C@@H]1COCCN1c1nc2n(c(=O)c1F)CC[C@@H](C(F)(F)F)N2Cc1noc(C(C)(C)C)n1 [Example 54, (S)-9-(5-tert-Butyl-[1,2,4]oxadiazol-3-yl-methyl)-3-fluoro-2-((R)-3-methyl-morpholin-4-yl)-8-trifluoromethyl-6,7,8,9-tetrahydro-pyrimido[1,2-a]-pyrimidin-4-one]
10 to 100 | C[C@@H]1COCCN1c1cc(=O)n2c(n1)N(CC(C)(C)O)CC[C@@H]2C(F)(F)F [Example 113, (R)-9-(2-Hydroxy-2-methylpropyl)-2-((R)-3-methylmorpholin-4-yl)-6-trifluoromethyl-6,7,8,9-tetrahydro-pyrimido[1,2-a]-pyrimidin-4-one]
< 10 | Cc1nc(CN2c3nc(N4CCOC[C@H]4C)cc(=O)n3C[C@@]2(C)C(F)(F)F)no1 [Example 240, (S)-2-Methyl-7-((R)-3-methylmorpholin-4-yl)-1-(5-methyl-[1,2,4]oxadiazol-3-yl-methyl)-2-trifluoromethyl-2,3-dihydro-1H-imidazo[1,2-a]-pyrimidin-5-one]
< 10 | O=C(CN1c2nc(N3CC4CCC(C3)O4)cc(=O)n2CC[C@H]1C(F)(F)F)c1ccccc1 [Example 163, (S)-2-(8-Oxa-3-aza-bicyclo[3.2.1]oct-3-yl)-9-(2-oxo-2-phenyl-ethyl)-8-trifluoromethyl-6,7,8,9-tetrahydro-pyrimido[1,2-a]-pyrimidin-4-one]
